Results as given in patent publication US8329707B2, “Substituted pyrazine compounds” (Astellas Pharma Inc., priority 2008, dated 2012).
Where a name gives a salt, the structure may show the parent alone.

Assays:
[1] = target: T1, recombinant human hepatic type GK (GST-hGK2) (Homo sapiens, UniProt P35557); experiment: Measurement of glucokinase (GK) activation; assay type: biochemical; conditions: 10 min; test compound final concentration 10 μM; 5 mM glucose; 27° C.; increase of absorbance at 340 nm during first 10 minutes vs DMSO; read-out: GK activation (%)
T1 construct: made in house; host or cells: Escherichia coli BL21
T1 sequence (P35557 1-466 isoform P35557-2): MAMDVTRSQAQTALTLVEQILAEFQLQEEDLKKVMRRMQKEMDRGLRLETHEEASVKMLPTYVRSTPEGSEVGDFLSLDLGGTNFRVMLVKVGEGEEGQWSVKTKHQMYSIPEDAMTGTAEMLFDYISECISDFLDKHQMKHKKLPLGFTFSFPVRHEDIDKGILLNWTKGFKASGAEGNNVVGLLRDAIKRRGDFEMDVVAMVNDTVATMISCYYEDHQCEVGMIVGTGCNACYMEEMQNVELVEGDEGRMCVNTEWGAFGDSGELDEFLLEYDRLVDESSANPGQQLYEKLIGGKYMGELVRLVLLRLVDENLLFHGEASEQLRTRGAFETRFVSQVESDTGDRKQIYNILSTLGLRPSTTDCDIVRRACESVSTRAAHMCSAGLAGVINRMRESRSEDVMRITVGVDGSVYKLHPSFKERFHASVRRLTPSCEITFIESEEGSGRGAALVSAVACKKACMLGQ
Method: The present test was carried out in accordance with the method described in Science 301: 370-373, 2003 and with partial modification thereof. Hereinafter, the summary is described.
First, the cloning of GK (GenBank No. AK122876) was carried out. 5′-[…]-3′(SEQ ID NO: 1) and 5′-[…]-3′(SEQ ID NO: 2) were used as primers, and pME18S-FL3-Glucokinase isoform 2 was used as a template to carry out PCR. The obtained reaction product was TA-cloned into a pGEM-T easy vector, digested with EcoRI and XhoI, and introduced to the pGEX-5X-1 vector digested in the same manner by ligation. By using this plasmid DNA (pGEX-human Glucokinase 2), a recombinant human hepatic type GK (GST-hGK2) fused with GST (Glutathione S-transferase) was expressed in Escherichia coli (BL21 strain) and purified by Glutathione Sepharose.
The reaction of GK was carried out at 27° C. on a 96-well plate. First, 1 μL of the test compound (final concentration 10 μM) that has been diluted with dimethylsulfoxide (DMSO) was added to 89 μL of an enzyme mixed liquid (all final concentration 25 mM HEPES pH 7.4, 25 mM KCl, 2 mM MgCl2, 1 mM ATP, 0.1% BSA, 1 mM DTT, 1 mM NADP (nicotinamide adenine dinucleotide phosphate), 2.5 U/ml glucose-6-phosphate dehydrogenase, GST-hGK2 adjusted to ΔODCont of about 0.05 to 0.10). Subsequently, 10 μL of a substrate solution (final concentration 5 mM glucose) was added to start the reaction. In order to quantify a final product NADPH, an absorbance at a wavelength of 340 nm was measured, and the GK activation (%) of the test compound was calculated from the increase of absorbance during the first 10 minutes (ΔOD) after initiation of the reaction. GK activation (%)=[(ΔODTest)−(ΔODCont)]/(ΔODCont)×100
ΔODTest: ΔOD at test compound

[2] = test system: ICR mouse; experiment: Oral glucose tolerance test in normal mouse; assay type: in vivo; conditions: ICR mouse fasted overnight; 10 mg/kg oral, glucose loading after 30 minutes; AUC lowering rate of blood glucose up to 2 hours after glucose loading vs solvent control
Method: (§1) The test compound was dissolved in a solvent (5% Cremophor, aqueous 5% DMSO solution), and to an ICR mouse after fasting overnight was orally administered 10 mg/kg of the test compound, and after 30 minutes, oral glucose loading was carried out. Immediately before the administration of the test compound, immediately before the glucose loading, and 0.25, 0.5, 1, and 2 hours after the glucose loading, blood was collected and blood glucose levels were measured. An AUC lowering rate (%) of the blood glucose levels from immediately before the glucose loading to 2 hours after the glucose loading with respect to that of the solvent control group was calculated.

[3] = test system: SD rat; experiment: Oral glucose tolerance test in normal rat; assay type: in vivo; conditions: SD rat fasted overnight; 1 mg/kg oral, glucose loading after 30 minutes; AUC lowering rate of blood glucose up to 2 hours vs solvent control
Method: as §1, with “SD rat” for “ICR mouse”, “1” for “10”, “and” for “and 0.25,”, “control” for “control group”

[4] = test system: C57BL/6 mice after loading a high fat diet; experiment: Oral glucose tolerance test in mouse fed high fat diet; assay type: in vivo; conditions: high fat diet about 30 days, fasted overnight, 1 mg/kg oral, glucose loading after 30 minutes, AUC lowering rate of blood glucose up to 2 hours vs solvent control
Method: The test compound was dissolved in a solvent (5% Cremophor, aqueous 5% DMSO solution), and to a C57BL/6 mice after loading a high fat diet for about 30 days and then fasting overnight was orally administered 1 mg/kg of the test compound, and after 30 minutes, oral glucose loading was carried out. Immediately before the administration of the test compound, immediately before the glucose loading, and 0.25, 0.5, 1, and 2 hours after the glucose loading, blood was collected and blood glucose levels were measured. An AUC lowering rate (%) of the blood glucose levels from immediately before the glucose loading to 2 hours after the glucose loading with respect to that of the solvent control was calculated.

Row | SMILES | activation at 10 µM [1] | inhibition in vivo at 10 mg/kg [2] | Blood glucose lowering rate (%) [3] | Blood glucose lowering rate (%) [4]
1 | Cn1ccc(NC(=O)/C(=C/[C@H]2CC[C@H](O)C2)c2ccc(S(=O)(=O)C3CC3)c(C3CC3)c2)n1 [Example 22-1, 2(E)-[3-cyclopropyl-4-(cyclopropylsulfonyl)phenyl]-3-[(1S,3S)-3-hydroxycyclopentyl]-N-(1-methyl-1H-pyrazol-3-yl)acrylamide] | 197% | 55% | 27% | 
2 | Cn1ccc(NC(=O)/C(=C/[C@H]2CCC(=O)C2)c2ccc(S(=O)(=O)C3CC3)c(C3CC3)c2)n1 [Example 4-1, (2E)-2-[3-cyclopropyl-4-(cyclopropylsulfonyl)phenyl]-N-(1-methyl-1H-pyrazol-3-yl)-3-[(1S)-3-oxocyclopentyl]acrylamide] | 355% | 39% | 25% | 32%
3 | O=C1CC[C@H](C[C@@H](C(=O)Nc2cnc(OCCO)cn2)c2ccc(S(=O)(=O)C3CC3)c(C3CC3)c2)C1 [Example 11, (2R)-2-[3-cyclopropyl-4-(cyclopropylsulfonyl)phenyl]-N-[5-(2-hydroxyethoxy)pyrazin-2-yl]-3-[(1R)-3-oxocyclopentyl]propanamide] | 433% | 50% | 20% | 
4 | Cc1ccc(NC(=O)[C@H](C[C@H]2CCC(=O)C2)c2ccc(S(=O)(=O)C3CC3)c(C3CC3)c2)nc1 [Example 9, (2R)-2-[3-cyclopropyl-4-(cyclopropylsulfonyl)phenyl]-N-(5-methylpyridin-2-yl)-3-[(1R)-3-oxocyclopentyl]propanamide monohydrochloride] | 333% | 52% |  | 
5 | O=C1CC[C@H](C[C@@H](C(=O)Nc2cnc(CO)cn2)c2ccc(S(=O)(=O)C3CC3)c(C3CC3)c2)C1 [Example 15, (2R)-2-[3-cyclopropyl-4-(cyclopropylsulfonyl)phenyl]-N-[5-(hydroxymethyl)pyrazin-2-yl]-3-[(1R)-3-oxocyclopentyl]propanamide] | 284% | 49% | 22% | 
6 | CC(O)c1cnc(NC(=O)[C@H](C[C@H]2CCC(=O)C2)c2ccc(S(=O)(=O)C3CC3)c(C3CC3)c2)cn1 (some centres unmarked) [Example 83] | 345% | 51% | 17% | 
7 | COc1cnc(NC(=O)[C@H](C[C@H]2CCC(=O)C2)c2ccc(S(=O)(=O)C3CC3)c(C3CC3)c2)cn1 [Example 72] | 311% | 59% |  | 
8 | CC(C)(O)COc1cnc(NC(=O)[C@H](C[C@H]2CCC(=O)C2)c2ccc(S(=O)(=O)C3CC3)c(C3CC3)c2)cn1 [Example 10, (2R)-2-[3-cyclopropyl-4-(cyclopropylsulfonyl)phenyl]-N-[5-(2-hydroxy-2-methylpropoxy)pyrazin-2-yl]-3-[(1R)-3-oxocyclopentyl]propanamide] | 357% | 51% |  | 
9 | Cn1ccc(NC(=O)/C(=C/[C@H]2CC[C@@H](O)C2)c2ccc(S(=O)(=O)C3CC3)c(C3CC3)c2)n1 [Example 22-2, 2(E)-[3-cyclopropyl-4-(cyclopropylsulfonyl)phenyl]-3-[(1S,3R)-3-hydroxycyclopentyl]-N-(1-methyl-1H-pyrazol-3-yl)acrylamide] | 199% | 52% | 25% | 
10 | Cc1cnc(NC(=O)/C(=C/[C@H]2CCC(=O)C2)c2ccc(S(=O)(=O)C3CC3)c(C3CC3)c2)cn1 [Example 36] | 332% | 45% | 40% | 43%
